# Laboratory results as given in ChEMBL document CHEMBL1949598, “Synthesis, cytostatic activity and ADME properties of C-5 substituted and N-acyclic pyrimidine derivatives” (Bioorg Med Chem Lett, 2012).
# The source made the active and inactive calls. No cut-off for these calls is given here.
# Legend:
# MCF7 [1] = assay: Cytotoxicity against human MCF7 cells up to 100 uM after 72 hrs by MTT assay; type: functional, cell-based
# HCT-116 [2] = assay: Cytotoxicity against human HCT116 cells up to 100 uM after 72 hrs by MTT assay; type: functional, cell-based
# NCI-H460 [3] = assay: Cytotoxicity against human H460 cells up to 100 uM after 72 hrs by MTT assay; type: functional, cell-based
# MCF7 [4] = assay: cells; details: Homo sapiens, MCF7, 72 h
# Description: Cytotoxicity against human MCF7 cells after 72 hrs by MTT assay
# HCT-116 [5] = assay: cells; details: Homo sapiens, HCT-116, 72 h
# NCI-H460 [6] = assay: Cytotoxicity against human H460 cells after 72 hrs by MTT assay; type: functional, cell-based; details: NCI-H460, 72 h
# HCT-116 [7] = assay: Cell cycle arrest in human HCT116 cells assessed as accumulation of cells at G2/M phase at 5 uM after 48 hrs using propidium iodide staining by FACS analysis (reference value: 26.6%); type: functional
# [8] = Half life in mouse plasma at 5 uM; type: ADME
# [9] = Half life in rat liver microsomes at 1 uM
# HCT-116 [10] = assay: Cell cycle arrest in human HCT116 cells assessed as accumulation of cells at S phase at 5 uM after 24 hrs using propidium iodide staining by FACS analysis (reference value: 50%); type: functional
# HCT-116 [11] = assay: Cell cycle arrest in human HCT116 cells assessed as accumulation of cells at G2/M phase at 1 uM after 48 hrs using propidium iodide staining by FACS analysis (reference value: 26.6%); type: functional
# MDR1 (P-gp), human [12] = assay: Apparent permeability from apical to basolateral side in MDCK2 cells expressing human MDR1 at 10 uM after 60 mins; type: ADME, cell-based, Canis lupus familiaris, MDCK-II; details: dog, MDCK-MDR1
# [13] = Half life in human plasma at 5 uM; type: ADME
# MDR1 (P-gp), human [14] = assay: (§1) Efflux ratio of apparent permeability from apical to basolateral side over basolateral to apical side in MDCK2 cells expressing human MDR1 in presence of P-gp inhibitor elacridar; type: ADME, cell-based, Canis lupus familiaris, MDCK-II; details: dog, MDCK-MDR1, with elacridar (P-gp inhibitor; concentration not stated)
# [15] = Half life in human liver microsomes at 1 uM
# HCT-116 [16] = assay: Cell cycle arrest in human HCT116 cells assessed as accumulation of cells at G1 phase at 1 uM after 48 hrs using propidium iodide staining by FACS analysis (reference value: 42.3%); type: functional
# [17] = Metabolic stability in rat liver microsomes assessed as compound remaining at 1 uM after 60 mins by LC/MS/MS analysis; type: ADME, Microsome; details: read-out: Stability
# [18] = Metabolic stability in human liver microsomes assessed as compound remaining at 1 uM after 60 mins by LC/MS/MS analysis; type: ADME, Microsome; details: read-out: Stability
# [19] = Metabolic stability in rat plasma assessed as compound remaining at 5 uM after 24 hrs by LC/MS/MS analysis; type: ADME, cell-free; details: read-out: Stability
# [20] = Half life in rat plasma at 5 uM; type: ADME
# HCT-116 [21] = assay: Cell cycle arrest in human HCT116 cells assessed as accumulation of cells at S phase at 1 uM after 24 hrs using propidium iodide staining by FACS analysis (reference value: 50%); type: functional
# [22] = Metabolic stability in mouse plasma assessed as compound remaining at 5 uM after 24 hrs by LC/MS/MS analysis; type: ADME, cell-free; details: read-out: Stability
# HCT-116 [23] = assay: Cell cycle arrest in human HCT116 cells assessed as accumulation of cells at G1 phase at 5 uM after 48 hrs using propidium iodide staining by FACS analysis (reference value: 42.3%); type: functional
# [24] = Metabolic stability in human plasma assessed as compound remaining at 5 uM after 24 hrs by LC/MS/MS analysis; type: ADME, cell-free; details: read-out: Stability
# HCT-116 [25] = assay: Cell cycle arrest in human HCT116 cells assessed as accumulation of cells at G1 phase at 5 uM after 24 hrs using propidium iodide staining by FACS analysis (reference value: 32.5%); type: functional
# HCT-116 [26] = assay: Cell cycle arrest in human HCT116 cells assessed as accumulation of cells at sub-G1 phase at 5 uM after 48 hrs using propidium iodide staining by FACS analysis (reference value: 1.5%); type: functional
# MDR1 (P-gp), human [27] = assay: Efflux ratio of apparent permeability from apical to basolateral over basolateral to apical side of MDCK2 cells expressing human MDR1 gene; type: ADME, cell-based, Canis lupus familiaris, MDCK-II; details: dog, MDCK-MDR1
# MDR1 (P-gp), human [28] = assay: Apparent permeability from basolateral to apical side in MDCK2 cells expressing human MDR1 at 10 uM after 60 mins; type: ADME, cell-based, Canis lupus familiaris, MDCK-II; details: dog, MDCK-MDR1
# HCT-116 [29] = assay: Cell cycle arrest in human HCT116 cells assessed as accumulation of cells at sub-G1 phase at 1 uM after 24 hrs using propidium iodide staining by FACS analysis (reference value: 1.8%); type: functional
# [30] = Metabolic stability in mouse liver microsomes assessed as compound remaining at 1 uM after 60 mins by LC/MS/MS analysis; type: ADME, Microsome; details: read-out: Stability
# [31] = Half life in mouse liver microsomes at 1 uM
# HCT-116 [32] = assay: Cell cycle arrest in human HCT116 cells assessed as accumulation of cells at sub-G1 phase at 1 uM after 48 hrs using propidium iodide staining by FACS analysis (reference value: 1.5%); type: functional
# HCT-116 [33] = assay: Cell cycle arrest in human HCT116 cells assessed as accumulation of cells at G2/M phase at 5 uM after 24 hrs using propidium iodide staining by FACS analysis (reference value: 17.4%); type: functional
# HCT-116 [34] = assay: Cell cycle arrest in human HCT116 cells assessed as accumulation of cells at S phase at 1 uM after 48 hrs using propidium iodide staining by FACS analysis (reference value: 31%); type: functional
# HCT-116 [35] = assay: Cell cycle arrest in human HCT116 cells assessed as accumulation of cells at sub-G1 phase at 5 uM after 24 hrs using propidium iodide staining by FACS analysis (reference value: 1.8%); type: functional
# HCT-116 [36] = assay: Cell cycle arrest in human HCT116 cells assessed as accumulation of cells at G2/M phase at 1 uM after 24 hrs using propidium iodide staining by FACS analysis (reference value: 17.4%); type: functional
# HCT-116 [37] = assay: Cell cycle arrest in human HCT116 cells assessed as accumulation of cells at G1 phase at 1 uM after 24 hrs using propidium iodide staining by FACS analysis (reference value: 32.5%); type: functional
# HCT-116 [38] = assay: Cell cycle arrest in human HCT116 cells assessed as accumulation of cells at S phase at 5 uM after 48 hrs using propidium iodide staining by FACS analysis (reference value: 31%); type: functional
# [39] = as §1; type: ADME, cell-based, Canis lupus familiaris, MDCK-II; details: dog, mdck-ii
compound,measurement,setting,value
COc1nc(Cl)ncc1CCO,growth inhibition (GI),MCF7 [1],inactive
same,growth inhibition (GI),HCT-116 [2],inactive
same,growth inhibition (GI),NCI-H460 [3],inactive
COCn1cc(CCO)c(OC)nc1=O,growth inhibition (GI),MCF7 [1],inactive
same,growth inhibition (GI),HCT-116 [2],inactive
same,growth inhibition (GI),NCI-H460 [3],inactive
COCn1c(=O)[nH]cc(CCO)c1=O,growth inhibition (GI),MCF7 [1],inactive
same,growth inhibition (GI),HCT-116 [2],inactive
same,growth inhibition (GI),NCI-H460 [3],inactive
COCOCCc1cn(COC)c(=O)nc1OC,growth inhibition (GI),MCF7 [1],inactive
same,growth inhibition (GI),HCT-116 [2],inactive
same,growth inhibition (GI),NCI-H460 [3],inactive
COCn1cc(CCO)c(=O)n(COC)c1=O,growth inhibition (GI),MCF7 [1],inactive
same,growth inhibition (GI),HCT-116 [2],inactive
same,growth inhibition (GI),NCI-H460 [3],inactive
CC(=O)OCCc1cnc(Cl)nc1Cl,growth inhibition (GI),MCF7 [1],Active
same,IC50,MCF7 [4],30 µM
same,IC50,HCT-116 [5],29 µM
same,growth inhibition (GI),HCT-116 [2],Active
same,IC50,NCI-H460 [6],31 µM
same,growth inhibition (GI),NCI-H460 [3],Active
COCn1cc(CCF)c(=O)[nH]c1=O,growth inhibition (GI),MCF7 [1],inactive
same,growth inhibition (GI),HCT-116 [2],inactive
same,growth inhibition (GI),NCI-H460 [3],inactive
ClCCc1cnc(Cl)nc1Cl,Activity,HCT-116 [7],60.7%
same,half-life at 5 µM,[8],1.52 h
same,half-life at 1 µM,[9],2.23 h
same,Activity,HCT-116 [10],14.6%
same,Activity,HCT-116 [11],26.7%
same,"Papp A→B at 1 h, 10 µM","MDR1 (P-gp), human [12]",20.8 ×10⁻⁶ cm/s
same,half-life at 5 µM,[13],2.55 h
same,efflux ratio,"MDR1 (P-gp), human [14]",1.2
same,IC50,MCF7 [4],10 µM
same,half-life at 1 µM,[15],1.73 h
same,IC50,HCT-116 [5],0.8 µM
same,IC50,NCI-H460 [6],3 µM
same,Activity,HCT-116 [16],41.7%
same,"remaining at 1 h, 1 µM",[17],73%
same,"remaining at 1 h, 1 µM",[18],65%
same,"remaining at 24 h, 5 µM",[19],0%
same,half-life at 5 µM,[20],0.4 h
same,Activity,HCT-116 [21],48.8%
same,"remaining at 24 h, 5 µM",[22],0%
same,Activity,HCT-116 [23],24.6%
same,"remaining at 24 h, 5 µM",[24],0%
same,Activity,HCT-116 [25],7.8%
same,Activity,HCT-116 [26],8.5%
same,efflux ratio,"MDR1 (P-gp), human [27]",1.2
same,"Papp B→A at 1 h, 10 µM","MDR1 (P-gp), human [28]",25.8 ×10⁻⁶ cm/s
same,Activity,HCT-116 [29],2.5%
same,"remaining at 1 h, 1 µM",[30],33%
same,half-life at 1 µM,[31],0.567 h
same,Activity,HCT-116 [32],1.7%
same,Activity,HCT-116 [33],77.6%
same,Activity,HCT-116 [34],31.5%
same,Activity,HCT-116 [35],8.1%
same,Activity,HCT-116 [36],17.2%
same,Activity,HCT-116 [37],33.5%
same,Activity,HCT-116 [38],14.8%
COc1ncc(CCO)c(OC)n1,growth inhibition (GI),MCF7 [1],inactive
same,growth inhibition (GI),HCT-116 [2],inactive
same,growth inhibition (GI),NCI-H460 [3],inactive
COc1ncc2c(n1)OCC2,growth inhibition (GI),MCF7 [1],inactive
same,growth inhibition (GI),HCT-116 [2],inactive
same,growth inhibition (GI),NCI-H460 [3],inactive
COCn1cc(CCOC(C)=O)c(=O)n(COC)c1=O,growth inhibition (GI),MCF7 [1],inactive
same,growth inhibition (GI),HCT-116 [2],inactive
same,growth inhibition (GI),NCI-H460 [3],inactive
COCn1c(=O)[nH]cc(CCOC(C)=O)c1=O,growth inhibition (GI),MCF7 [1],inactive
same,growth inhibition (GI),HCT-116 [2],inactive
same,growth inhibition (GI),NCI-H460 [3],inactive
Clc1ncc2c(n1)OCC2,growth inhibition (GI),MCF7 [1],Active
same,IC50,MCF7 [4],45 µM
same,IC50,HCT-116 [5],13 µM
same,growth inhibition (GI),HCT-116 [2],Active
same,IC50,NCI-H460 [6],22 µM
same,growth inhibition (GI),NCI-H460 [3],Active
CC(=O)OCCc1c[nH]c(=O)[nH]c1=O,growth inhibition (GI),MCF7 [1],inactive
same,growth inhibition (GI),HCT-116 [2],inactive
same,growth inhibition (GI),NCI-H460 [3],inactive
OCCc1cnc(Cl)nc1Cl,growth inhibition (GI),MCF7 [1],inactive
same,growth inhibition (GI),HCT-116 [2],inactive
same,growth inhibition (GI),NCI-H460 [3],inactive
Cc1nc(Cl)nc(Cl)c1CCCl,half-life at 5 µM,[8],7.97 h
same,half-life at 1 µM,[9],2.23 h
same,"Papp A→B at 1 h, 10 µM","MDR1 (P-gp), human [12]",35.8 ×10⁻⁶ cm/s
same,half-life at 5 µM,[13],10 h
same,Ratio,[39],1.4
same,half-life at 1 µM,[15],2.42 h
same,"remaining at 1 h, 1 µM",[17],74%
same,"remaining at 1 h, 1 µM",[18],76%
same,"remaining at 24 h, 5 µM",[19],3%
same,half-life at 5 µM,[20],3.07 h
same,"remaining at 24 h, 5 µM",[22],22%
same,"remaining at 24 h, 5 µM",[24],20%
same,efflux ratio,"MDR1 (P-gp), human [27]",0.6
same,"Papp B→A at 1 h, 10 µM","MDR1 (P-gp), human [28]",20.9 ×10⁻⁶ cm/s
same,"remaining at 1 h, 1 µM",[30],41%
same,half-life at 1 µM,[31],0.767 h
COc1nc(Cl)ncc1CCF,growth inhibition (GI),MCF7 [1],inactive
same,growth inhibition (GI),HCT-116 [2],inactive
same,growth inhibition (GI),NCI-H460 [3],inactive
COCn1cc(CCO)c(=O)[nH]c1=O,growth inhibition (GI),MCF7 [1],inactive
same,growth inhibition (GI),HCT-116 [2],inactive
same,growth inhibition (GI),NCI-H460 [3],inactive
O=c1[nH]cc(F)c(=O)[nH]1 [FLUOROURACIL],IC50,MCF7 [4],14 µM
same,IC50,NCI-H460 [6],3 µM
COCn1cc(CCOC(C)=O)c(=O)[nH]c1=O,growth inhibition (GI),MCF7 [1],inactive
same,growth inhibition (GI),HCT-116 [2],inactive
same,growth inhibition (GI),NCI-H460 [3],inactive
COCOCCc1cnc(OC)nc1OC,growth inhibition (GI),MCF7 [1],Active
same,IC50,MCF7 [4],> 100 µM
same,IC50,HCT-116 [5],75 µM
same,growth inhibition (GI),HCT-116 [2],Active
same,IC50,NCI-H460 [6],> 100 µM
same,growth inhibition (GI),NCI-H460 [3],Active
